Laboratory results reported in the NIST ThermoML archive (doi:10.1021/je3010535).
Values joined by “and” are separate entries in the source; they are usually repeats but may differ in a detail not shown here. Equal values may be shown once. Numbers after ± are expanded uncertainties.

Assay: Henry's Law constant (molality scale); of the first substance listed, at infinite dilution; xn = mol fraction of the nth substance listed
Details: Liquid, Chromatography, x1 = 0

Compound | Henry's Law constant (274.15 K) [kPa·kg/mol] | Henry's Law constant (294.65 K) | Henry's Law constant (296.15 K) [kPa·kg/mol] | Henry's Law constant (310.15 K) [kPa·kg/mol] | Henry's Law constant (320.15 K) [kPa·kg/mol] | Henry's Law constant (331.15 K) [kPa·kg/mol] | Henry's Law constant (333.15 K) [kPa·kg/mol] | Henry's Law constant (313.15 K) [kPa·kg/mol] | Henry's Law constant (326.15 K) [kPa·kg/mol] | Henry's Law constant (273.25 K) [kPa·kg/mol] | Henry's Law constant (298.15 K) [kPa·kg/mol] | Henry's Law constant (311.15 K) [kPa·kg/mol] | Henry's Law constant (332.15 K) [kPa·kg/mol]
CC#N [acetonitrile] + O | 0.21 ± 0.084 | 1.41 kPa·kg/mol and 1.55 kPa·kg/mol | 1.7 ± 0.68 | 5.36 ± 2.1 | 12.6 ± 5.1 | 6.17 |  |  |  |  |  |  | 
CC(=O)c1ccccc1 [acetophenone] + O | 0.128 ± 0.039 | 0.881 kPa·kg/mol and 0.738 kPa·kg/mol | 1.6 ± 0.48 | 2.48 ± 0.75 | 4.6 ± 1.4 | 8.87 ± 2.7 |  |  |  |  |  |  | 
C=CC#N [acrylonitrile] + O | 1.24 ± 0.37 | 5.23 kPa·kg/mol and 8.07 kPa·kg/mol | 9.19 ± 2.8 | 25.3 ± 7.6 | 40 ± 12 | 73.9 ± 22 | 97.8 ± 29 |  |  |  |  |  | 
Brc1ccccc1 [bromobenzene] + O | 56.1 ± 17 | 138 kPa·kg/mol and 147 kPa·kg/mol | 161 ± 48 | 273 ± 82 | 470 ± 140 | 708 ± 210 |  |  |  |  |  |  | 
ClCBr [bromochloromethane] + O | 50.8 ± 15 | 121 kPa·kg/mol and 123 kPa·kg/mol | 126 ± 38 | 259 ± 78 | 479 ± 140 | 795 ± 240 |  |  |  |  |  |  | 
ClC(Cl)Br [bromodichloromethane] + O | 60.5 ± 18 | 165 kPa·kg/mol and 162 kPa·kg/mol | 172 ± 51 | 347 ± 100 |  | 973 ± 290 |  |  |  |  |  |  | 
CBr [bromomethane] + O | 399 ± 120 |  |  |  |  |  |  | 1120 ± 340 | 1920 ± 580 |  |  |  | 
CCC(C)=O [butanone] + O | 0.416 ± 0.12 | 1.72 kPa·kg/mol and 2.37 kPa·kg/mol | 2.62 ± 0.79 | 8.13 ± 2.4 | 15.3 ± 4.6 | 43.9 ± 13 | 62 ± 19 |  |  |  |  |  | 
CCCCc1ccccc1 [butylbenzene] + O | 174 |  | 458 | 481 |  | 1280 |  | 2290 | 3470 |  |  |  | 
S=C=S [carbon disulfide] + O | 682 ± 200 |  |  |  |  |  |  | 2930 ± 880 | 5690 ± 1700 |  |  |  | 
CCCl [chloroethane] + O | 522 ± 160 |  |  |  |  |  |  | 1950 ± 580 | 2940 ± 880 |  |  |  | 
C=CCl [chloroethene] + O | 1140 ± 340 |  |  |  |  |  |  | 4200 ± 1300 | 6500 ± 1900 |  |  |  | 
ClC/C=C\CCl [cis-1,4-dichloro-2-butene] + O | 3.03 |  | 31.9 | 102 | 182 | 492 |  |  | 1380 |  |  |  | 
C1CCCCC1 [cyclohexane] + O | 1010 ± 300 | 2250 kPa·kg/mol | 2250 ± 670 |  |  |  |  | 9460 ± 2800 | 15700 ± 4700 |  |  |  | 
BrCBr [dibromomethane] + O | 24 ± 7.2 | 67.5 kPa·kg/mol and 64.7 kPa·kg/mol | 72.9 ± 22 | 154 ± 46 | 278 ± 83 | 444 ± 130 |  |  |  |  |  |  | 
FC(F)(Cl)Cl [dichlorodifluoromethane] + O | 1660 ± 500 |  |  |  |  |  |  | 40000 ± 12000 | 22600 ± 6800 |  |  |  | 
ClCCl [dichloromethane] + O | 85.1 ± 26 | 222 kPa·kg/mol and 214 kPa·kg/mol | 250 ± 75 |  |  |  |  | 523 ± 160 | 686 ± 210 |  |  |  | 

Compound | Henry's Law constant (274.15 K) [kPa·kg/mol] | Henry's Law constant (294.65 K) | Henry's Law constant (296.15 K) [kPa·kg/mol] | Henry's Law constant (310.15 K) [kPa·kg/mol] | Henry's Law constant (320.15 K) [kPa·kg/mol] | Henry's Law constant (331.15 K) [kPa·kg/mol] | Henry's Law constant (333.15 K) [kPa·kg/mol] | Henry's Law constant (313.15 K) [kPa·kg/mol] | Henry's Law constant (326.15 K) [kPa·kg/mol] | Henry's Law constant (273.25 K) [kPa·kg/mol] | Henry's Law constant (298.15 K) [kPa·kg/mol] | Henry's Law constant (311.15 K) [kPa·kg/mol] | Henry's Law constant (332.15 K) [kPa·kg/mol]
CCOCC [diethyl ether] + O | 16 ± 5 | 68 kPa·kg/mol and 70 kPa·kg/mol | 77 ± 23 | 206 ± 62 | 427 ± 130 | 803 ± 240 |  |  |  |  |  |  | 
CI [iodomethane] + O | 251 ± 75 |  |  |  |  |  |  | 814 ± 240 | 1560 ± 470 |  |  |  | 
C=C(C)C#N [isopropenylnitrile] + O | 2.92 ± 1.2 | 14.7 kPa·kg/mol and 16.8 kPa·kg/mol | 16.7 ± 6.7 | 50.9 ± 20 | 68.5 ± 27 | 147 ± 59 | 261 ± 100 |  |  |  |  |  | 
COC(C)=O [methyl ethanoate] + O | 1.06 ± 0.42 | 5.33 kPa·kg/mol and 7.39 kPa·kg/mol | 7.53 ± 3 | 34.1 ± 14 | 52.4 ± 21 | 83.1 ± 33 | 125 ± 50 |  |  |  |  |  | 
C=C(C)C(=O)OC [methyl methacrylate] + O | 2.57 ± 0.77 | 24.2 kPa·kg/mol and 12.7 kPa·kg/mol | 24.5 ± 7.4 | 85.1 ± 26 | 132 ± 40 | 250 ± 75 |  |  |  |  |  |  | 
c1ccc2ccccc2c1 [naphthalene] + O | 5 ± 1.5 | 31.7 kPa·kg/mol and 17.8 kPa·kg/mol | 34.7 ± 10 | 90.2 ± 27 | 116 ± 35 | 196 ± 59 | 278 ± 83 |  |  |  |  |  | 
O=[N+]([O-])c1ccccc1 [nitrobenzene] + O | 0.175 ± 0.053 | 1.06 kPa·kg/mol and 1.11 kPa·kg/mol | 2.58 ± 0.78 | 4.13 ± 1.2 | 8.57 ± 2.6 | 17.6 ± 5.3 |  |  |  |  |  |  | 
ClC(Cl)C(Cl)(Cl)Cl [pentachloroethane] + O | 43.4 ± 17 | 133 kPa·kg/mol and 141 kPa·kg/mol | 163 ± 65 | 268 ± 110 | 505 ± 200 | 989 ± 400 |  | 471 ± 190 | 1070 ± 430 |  |  |  | 
CC(C)O [propan-2-ol] + O |  |  |  |  |  |  |  |  |  | 0.088 | 2.14 | 1.19 | 22.9
CCC#N [propanenitrile] + O | 0.302 ± 0.091 | 2.3 kPa·kg/mol and 2.2 kPa·kg/mol | 2.78 ± 0.83 | 5.36 ± 1.6 | 11 ± 3.3 | 14 ± 4.2 |  |  |  |  |  |  | 
CCCc1ccccc1 [propylbenzene] + O | 182 |  | 505 | 412 |  | 1920 |  | 1900 | 3160 |  |  |  | 
ClC(Cl)(Cl)Cl [tetrachloromethane] + O | 696 ± 210 | 1770 kPa·kg/mol and 1580 kPa·kg/mol | 1690 ± 510 |  |  |  |  | 4230 ± 1300 | 7590 ± 2300 |  |  |  | 
ClC/C=C/CCl [trans-1,4-dichloro-2-butene] + O | 3.9 ± 1.6 | 28.2 kPa·kg/mol and 17.7 kPa·kg/mol | 31.6 ± 13 | 96.4 ± 39 | 175 ± 70 | 155 ± 62 |  |  |  |  |  |  | 
BrC(Br)Br [tribromomethane] + O | 7.47 ± 2.2 | 46.4 kPa·kg/mol and 29.9 kPa·kg/mol | 50.9 ± 15 | 120 ± 36 | 200 ± 60 | 328 ± 98 |  |  |  |  |  |  | 
ClC=C(Cl)Cl [trichloroethene] + O | 249 ± 75 | 711 kPa·kg/mol and 721 kPa·kg/mol | 691 ± 210 | 2110 ± 630 |  | 4620 ± 1400 |  | 1670 ± 500 | 2630 ± 790 |  |  |  | 
FC(Cl)(Cl)Cl [trichlorofluoromethane] + O | 987 ± 300 |  |  |  |  |  |  | 8110 ± 2400 | 15600 ± 4700 |  |  |  | 
